For experiment [1], the target named is T1, Recombinant full-length human IDO1 (Homo sapiens, UniProt P14902).
T1 construct: Recombinant full-length human IDO1 with a N-terminal hexahistidine tag; hexahistidine (His6) (N); made in house; host or cells: E. coli
The experiment in a line: IDO1 enzymatic assay (NFK quantified by LCMS). It counts as biochemical. To be noted: 2 nM enzyme, 5 μM L-tryptophan, pH6.5, 30 minutes pre-incubation at RT; mean values when measured multiple times; read-out: hIDO activity (IC50 in nM). The gist of the method:
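His-tagged human IDO1 (2 nM) in pH 6.5 phosphate buffer with ascorbate, methylene blue and catalase was preincubated with compound (10 μM–0.5 nM, 0.6% DMSO) for 30 min at RT. The reaction then ran with 5 μM L-Trp for 30 min. NFK was measured by LCMS against a d5-Trp standard, and IC50 was obtained by four-parameter fit.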

Experiment [2] addresses T2, Recombinant human TDO comprising amino acids 19-407 (Homo sapiens, UniProt P48775).
T2 construct: Recombinant human TDO comprising amino acids 19-407 with a N-terminal hexahistidine tag; hexahistidine (His6) (N); made in house; host or cells: E. coli
Briefly: TDO2 enzymatic assay (NFK quantified by LCMS). It counts as biochemical. The conditions noted are these: 15 nM enzyme, 200 μM L-tryptophan, pH7, 30 minutes pre-incubation at RT; mean values when measured multiple times; read-out: hTDO activity (IC50 in nM). A digest of the protocol:
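NFK formed over 30 min at RT from 200 μM L-tryptophan was measured by LCMS, normalized to d5-tryptophan, after compound (0.5 nM–10 μM, duplicates, 0.6% DMSO) was preincubated 30 min with 15 nM recombinant His-tagged TDO 19-407 in phosphate buffer pH 7. IC50 from four-parameter logistic fit; repeats averaged.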

T1 sequence (P14902 whole entry): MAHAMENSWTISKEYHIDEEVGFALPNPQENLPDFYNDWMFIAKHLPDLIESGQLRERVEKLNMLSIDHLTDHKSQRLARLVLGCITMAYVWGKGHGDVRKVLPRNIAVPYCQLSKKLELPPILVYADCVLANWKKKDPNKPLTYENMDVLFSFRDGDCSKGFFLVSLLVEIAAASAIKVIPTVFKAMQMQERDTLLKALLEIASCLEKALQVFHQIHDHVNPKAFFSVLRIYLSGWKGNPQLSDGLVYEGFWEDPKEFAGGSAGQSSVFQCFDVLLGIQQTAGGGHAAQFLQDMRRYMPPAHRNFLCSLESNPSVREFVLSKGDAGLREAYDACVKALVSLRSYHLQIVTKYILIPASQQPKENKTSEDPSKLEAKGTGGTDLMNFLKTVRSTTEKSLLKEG
T2 sequence (P48775 19-406 limits assumed): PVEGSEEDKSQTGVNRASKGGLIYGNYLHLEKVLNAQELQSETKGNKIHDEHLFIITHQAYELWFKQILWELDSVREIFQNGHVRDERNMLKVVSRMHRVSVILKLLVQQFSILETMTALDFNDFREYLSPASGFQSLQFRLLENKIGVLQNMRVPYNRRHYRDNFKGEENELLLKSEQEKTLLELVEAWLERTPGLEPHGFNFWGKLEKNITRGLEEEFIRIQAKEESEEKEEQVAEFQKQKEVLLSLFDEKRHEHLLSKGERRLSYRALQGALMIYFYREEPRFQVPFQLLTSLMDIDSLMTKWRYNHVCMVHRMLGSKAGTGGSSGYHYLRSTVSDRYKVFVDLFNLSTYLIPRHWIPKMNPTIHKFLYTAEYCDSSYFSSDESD

For orientation: IC50 means the concentration that inhibits the measured activity by half. For the compound `COc1ccc(-n2cc(C(O)c3c(C4=CCCC4)sc4cncn34)nn2)cc1` (racemic) [Example 259, rac-(2-(Cyclopent-1-enyl)-imidazo[5,1-b]thiazol-3-yl)-[1-(4-methoxy-phenyl)-1H-[1,2,3]triazol-4-yl]-methanol], the IC50 in experiment [1] is 85.6 nM; in experiment [2] it was above 10200 nM.
The matching figures for `Oc1cccc(Cn2cc(C(O)c3c(C4CC4)sc4cncn34)nn2)c1` (racemic) [Example 298, rac-3-{4-[(2-Cyclopropyl-imidazo[5,1-b]thiazol-3-yl)-hydroxy-methyl]-[1,2,3]triazol-1-ylmethyl}-phenol]: 23.3 nM and above 10200 nM.
The matching figures for `COc1ccc(-n2cc(C(O)c3c(C4CC4)sc4cncn34)nn2)c(F)c1Cl` (racemic) [Example 292, rac-[1-(3-Chloro-2-fluoro-4-methoxy-phenyl)-1H-[1,2,3]triazol-4-yl]-(2-cyclopropyl-imidazo[5,1-b]thiazol-3-yl)-methanol]: 28.9 nM and above 10200 nM.
The matching figures for `CCOC(=O)COc1ccc(-n2cc(C(O)c3c(C4CC4)sc4cncn34)nn2)cc1` (racemic) [Example 231, rac-(4-{4-[(2-Cyclopropyl-imidazo[5,1-b]thiazol-3-yl)-hydroxy-methyl]-[1,2,3]triazol-1-yl}-phenoxy)-acetic acid ethyl ester]: 22.3 nM and above 10200 nM.
For the compound `CCc1sc2cncn2c1C(O)c1cn(-c2ccc(C(=O)NCCN(C)C)cc2)nn1` (racemic) [Example 119, rac-N-(2-Dimethylamino-ethyl)-4-{4-[(2-ethyl-imidazo[5,1-b]thiazol-3-yl)-hydroxy-methyl]-[1,2,3]triazol-1-yl}-benzamide], the values for the half-inhibitory concentration (IC50) in experiment [1] and in experiment [2] were 133 nM and 9720 nM, respectively.
The matching figures for `Oc1cc(Cl)ccc1-n1cc(C(O)c2c(C3CC3)sc3cncn23)nn1` (racemic) [Example 221, rac-5-Chloro-2-{4-[(2-cyclopropyl-imidazo[5,1-b]thiazol-3-yl)-hydroxy-methyl]-[1,2,3]triazol-1-yl}-phenol]: 90.2 nM and above 10200 nM.
The matching figures for `OC(c1cn(-c2cnc(OCc3ccccc3)nc2)nn1)c1c(C2CC2)sc2cncn12` (racemic) [Example 85, rac-[1-(2-Benzyloxy-pyrimidin-5-yl)-1H-[1,2,3]triazol-4-yl]-(2-cyclopropyl-imidazo[5,1-b]thiazol-3-yl)-methanol]: 11.5 nM and above 10200 nM.
The matching figures for `CCc1sc2cncn2c1C(O)c1cn(-c2ccc(NC(=O)OC(C)(C)C)cc2)nn1` (racemic) [Example 234, rac-(4-{4-[(2-Ethyl-imidazo[5,1-b]thiazol-3-yl)-hydroxy-methyl]-[1,2,3]triazol-1-yl}-phenyl)-carbamic Acid Tert-Butyl Ester]: 36.7 nM and 7940 nM.
On to `COc1ccc(-n2cc(C(O)c3c(C4CC4)sc4cncn34)cn2)cc1C#N` (racemic) [Example 247, rac-5-{4-[(2-Cyclopropyl-imidazo[5,1-b]thiazol-3-yl)-hydroxy-methyl]-pyrazol-1-yl}-2-methoxy-benzonitrile], for which the half-inhibitory concentration (IC50) amounted to 31.3 nM in experiment [1] and 8140 nM in experiment [2].
The matching figures for `CCc1sc2cncn2c1C(O)c1cn(-c2ccc(O)c(Cl)c2)nn1` (racemic) [Example 323, rac-2-Chloro-4-{4-[(2-ethyl-imidazo[5,1-b]thiazol-3-yl)-hydroxy-methyl]-[1,2,3]triazol-1-yl}-phenol]: 3.82 nM and 1210 nM.
The matching figures for `CS(=O)(=O)CCOc1ccc(-n2cc(C(O)c3c(C4CC4)sc4cncn34)nn2)cc1` (racemic) [Example 205, rac-(2-Cyclopropyl-imidazo[5,1-b]thiazol-3-yl)-{1-[4-(2-methanesulfonyl-ethoxy)-phenyl]-1H-[1,2,3]triazol-4-yl}-methanol]: 626 nM and above 10200 nM.
The matching figures for `Oc1ccc(-n2cc(C(O)c3c(-c4ccccc4)sc4cncn34)nn2)cc1Cl` (racemic) [Example 264, rac-2-Chloro-4-{4-[hydroxy-(2-phenyl-imidazo[5,1-b]thiazol-3-yl)-methyl]-[1,2,3]triazol-1-yl}-phenol]: 93.9 nM and 5890 nM.
Turning to `COc1ccc(-n2cc(C(O)c3c(C4CC4)sc4cncn34)nn2)c(C)c1` (racemic) [Example 306, rac-(2-Cyclopropyl-imidazo[5,1-b]thiazol-3-yl)-[1-(4-methoxy-2-methyl-phenyl)-1H-[1,2,3]triazol-4-yl]-methanol], the values for the IC50 in experiment [1] and in experiment [2] were 17.9 nM and above 10200 nM, respectively.
Regarding `COc1ccc(-n2cc(C(O)c3c(C)sc4cncn34)nn2)cc1` (racemic) [Example 261, rac-[1-(4-Methoxy-phenyl)-1H-[1,2,3]triazol-4-yl]-(2-methyl-imidazo[5,1-b]thiazol-3-yl)-methanol], the IC50 was 51.7 nM in experiment [1] and above 10200 nM in experiment [2].
The matching figures for `CCc1sc2cncn2c1[C@@H](O)c1cn(-c2ccc(NC(=O)OC)cc2)nn1` [Example 49a, (4-{4-[(R)-(2-Ethyl-imidazo[5,1-b]thiazol-3-yl)-hydroxy-methyl]-[1,2,3]triazol-1-yl}-phenyl)-carbamic acid methyl ester]: 2.7 nM and 1040 nM.
The matching figures for `OC(c1cn(-c2ccc3cc[nH]c3c2)nn1)c1c(C2CC2)sc2cncn12` (racemic) [Example 21, rac-(2-Cyclopropyl-imidazo[5,1-b]thiazol-3-yl)-[1-(1H-indol-6-yl)-1H-[1,2,3]triazol-4-yl]-methanol]: 18.1 nM and above 10200 nM.
Take `COc1cc(-n2cc(C(O)c3c(C4CC4)sc4cncn34)nn2)cc(C#N)c1OC` (racemic) [Example 198, rac-5-{4-[(2-Cyclopropyl-imidazo[5,1-b]thiazol-3-yl)-hydroxy-methyl]-[1,2,3]triazol-1-yl}-2,3-dimethoxy-benzonitrile]: the IC50 in experiment [1] was 52.4 nM; in experiment [2], above 10200 nM.
The matching figures for `COc1cccc(-c2ccc(C(O)c3c(C4CC4)sc4cncn34)s2)c1` (racemic) [Example 167, rac-(2-Cyclopropyl-imidazo[5,1-b]thiazol-3-yl)-[5-(3-methoxy-phenyl)-thiophen-2-yl]-methanol]: 639 nM and above 10200 nM.
The matching figures for `OC(c1cn(-c2ccc3c(c2)OCCO3)nn1)c1c(C2CC2)sc2cncn12` (racemic) [Example 39, rac-(2-Cyclopropyl-imidazo[5,1-b]thiazol-3-yl)-[1-(2,3-dihydro-benzo[1,4]dioxin-6-yl)-1H-[1,2,3]triazol-4-yl]-methanol]: 21.9 nM and above 10200 nM.
As to `Oc1ccc(Cn2cc(C(O)c3c(C4CC4)sc4cncn34)nn2)cc1` (racemic) [Example 304, rac-4-{4-[(2-Cyclopropyl-imidazo[5,1-b]thiazol-3-yl)-hydroxy-methyl]-[1,2,3]triazol-1-ylmethyl}-phenol], the half-inhibitory concentration (IC50) in experiment [1] is 52.2 nM; in experiment [2], above 10200 nM.
The matching figures for `CC(C)Oc1ccc(-n2cc(C(O)c3c(C4CC4)sc4cncn34)nn2)cn1` (racemic) [Example 82, rac-(2-Cyclopropyl-imidazo[5,1-b]thiazol-3-yl)-[1-(6-isopropoxy-pyridin-3-yl)-1H-[1,2,3]triazol-4-yl]-methanol]: 44.2 nM and above 10200 nM.
